One substance from patent US9447157B2, “Nitration shielding peptides and methods of use thereof” (Augusta University Research Institute, Inc., priority 2013, dated 2016) can be followed below.

The test system of test [1] is Pulmonary artery smooth muscle cells (PASMC). Description: PASMC cell growth (cell count). It counts as cell-based, lamb. The following applies: SIN-1 500 μM 48 h. Here is the method: Pulmonary artery smooth muscle cells (PASMC) were grown on a 10 cm dish to 75% confluence, transfected with WT-PKG-1α or Y247F-PKG-1α cDNA using a Qiagen transfection kit, according to manufacturer's instructions, and incubated at 37° C. for 20 h. […] The cells were then trypsinized, seeded onto a 6-well plate at a density of 2.5×10^4 cells per well, and grown for an additional 4 h in serum-free DMEM growth medium containing 1% FBS and antibiotics. The cells were then treated with or without SIN-1 (500 μM) and allowed to grow at 37° C. in the incubator for an additional 48 h. The cellular proliferation was evaluated by counting the cells with a hemacytometer (Cascade Biologicals™, Portland, Oreg.) after the trypsinization of the PASMC monolayers.

Another test concerns PKG-1α. Description: PKG activity in transfected HEK-293T cells. The following applies: SIN-1 500 μM 30 min. It counts as cell-based, human. Here is the method:
To determine the role of tyrosine 247 and tyrosine 425 in mediating the nitration dependent inhibition of PKG-1α kinase activity, Y247F- and Y425F-PKG-1α mutants were generated and expressed in HEK-293T cells. HEK-293T cells were transiently transfected with expression plasmids containing WT-, Y247F-, or Y425F-PKG-1α for 48 h. Cells were also treated or not with SIN-1 (500 μM, 30 min). Protein extracts were immunoprecipitated using an antibody raised against PKG-1α and the level of nitrated PKG-1α determined by probing the membranes with an antiserum raised against 3-NT. The blots were then stripped and re-probed for PKG-1α to normalize for the efficiency of the immunoprecipitation.
Measurement of PKG Catalytic Activity Total PKG activity was determined using a non-radioactive immunoassay in cell lysates, according to the manufacturer's directions. […]
After incubation for 30 min at 30° C. to allow the phosphorylation of the bound substrate, an HRP conjugated anti-phosphothreonine specific antibody was added to convert a chromogenic substrate to a colorimetric substrate that was subsequently read spectrophotometrically at 450 nm. The change in absorbance reflected the relative activity of PKG in the sample. […] The kinetic constants were determined using nonlinear regression (curve fit) analysis (GraphPad Prism Software Inc).

Test [2] concerns Pulmonary artery smooth muscle cells (PASMC). Description: PASMC cellular metabolism (alamarBlue assay). It counts as cell-based, lamb. The following applies: SIN-1 500 μM 48 h. Here is the method:
This was determined via the alamarBlue assay (AbD Serotec, Oxford, UK). The assay is based on the reducing ability of metabolically active cells to convert the active reagent, resazurin, into a fluorescent and colorimetric indicator, resorufin. When added to cell cultures, the oxidized, resazurin enters the cytosol and is converted to the reduced, resorufin in the mitochondria by accepting electrons from NADH, NADPH, FADH2, FMNH2, as well as from the cytochromes. The non-toxic and cell permeable nature of alamarBlue permits the long-term exposure of cells. PASMC were grown on a 10 cm dish to 75% confluence, transfected with WT-PKG-1α or Y247F-PKG-1α cDNA, and incubated at 37° C. for 20 h. The cells were trypsinized and seeded onto a 24-well plate at a density of 20,000 cells per well and grown for an additional 4 h in serum and phenol free DMEM growth medium containing 1% FBS and antibiotics. The cells were then treated with or without SIN-1 (500 μM, 48 h) in the presence of 10% well volume of alamarBlue dye. The color change of the dye was determined at an excitation wavelength of 560 nm and an emission wavelength of 590 nm in a Fluoroskan Ascent plate reader. […] Cellular metabolism was expressed as follows: […]

“3-morpholinosydnonimine N-ethylcarbamide [SIN-1]”: the “Proliferation, WT-PKG-1α transfected PASMC” value in test [1] is reported as “stimulated”. In addition, the “cGMP dependent PKG activity, WT- and Y425F-PKG-1α cells” value in the test with PKG-1α (HEK-293T expressing WT- and Y425F-PKG-1α) is given as “attenuated”. Also, the “cGMP-independent PKG activity” value in the test with PKG-1α (transfected HEK-293T) was “did not alter”. Further, the “Metabolism, WT-PKG-1α transfected PASMC” value in test [2] is reported as “stimulated”.
